From patent US12134607B2, “Crystals of tetrahydronaphthyl urea derivative” (MOCHIDA PHARMACEUTICAL CO., LTD., priority 2017, dated 2024)
In brackets after ≈: the same amount, converted by molar mass.

Legend:
[1] = Photostability test according to ICH Q1B; format: physicochemical; settings: for Stability against light: result in words
Protocol: (Test Example 3) Photostability Test
The type I (Example 2), III (Example 3), V (Example 4), and VI (Example 5) crystals (each about 20 mg) of 1-((1R,2R)-2-hydroxy-4,4-dimethyl-1,2,3,4-tetrahydronaphthalen-1-yl)-3-(5-methyl-6-(2-methylpyrimidin-5-yl)-2-phenylpyridin-3-yl)urea obtained in the above Examples 2 to 5 were placed in a transparent plastic container and covered, and were subjected to photostability test according to the ICH Q1B (Guidelines on Photostability Testing of New Active Substances and Medicinal Products) described in Table 8 (Here, the photostability test samples were stored at about 25° C. under separate lamps which respectively emits visible light and UV-A light so that the total light exposure should be 1.2 million lux hours and 200 W hours/m^2 or more, respectively. A 5-day study should be designated as “0.5 ICH” and a 10-day study as “1 ICH”). […] After completion of the test, the retrieved sample was confirmed on the purity by high performance liquid chromatography and on the crystal form by powder X-ray diffraction analysis as in the Examples.

human TrkA protein = human TrkA protein (Homo sapiens (Human), UniProt P04629); experiment: Evaluation on binding activity against human TrkA protein (TrkA LanthaScreen Eu Kinase Binding Assay); settings: TrkA enzyme, Kinase Tracer 236, TR-FRET
Chain of human TrkA protein (P04629 33-796): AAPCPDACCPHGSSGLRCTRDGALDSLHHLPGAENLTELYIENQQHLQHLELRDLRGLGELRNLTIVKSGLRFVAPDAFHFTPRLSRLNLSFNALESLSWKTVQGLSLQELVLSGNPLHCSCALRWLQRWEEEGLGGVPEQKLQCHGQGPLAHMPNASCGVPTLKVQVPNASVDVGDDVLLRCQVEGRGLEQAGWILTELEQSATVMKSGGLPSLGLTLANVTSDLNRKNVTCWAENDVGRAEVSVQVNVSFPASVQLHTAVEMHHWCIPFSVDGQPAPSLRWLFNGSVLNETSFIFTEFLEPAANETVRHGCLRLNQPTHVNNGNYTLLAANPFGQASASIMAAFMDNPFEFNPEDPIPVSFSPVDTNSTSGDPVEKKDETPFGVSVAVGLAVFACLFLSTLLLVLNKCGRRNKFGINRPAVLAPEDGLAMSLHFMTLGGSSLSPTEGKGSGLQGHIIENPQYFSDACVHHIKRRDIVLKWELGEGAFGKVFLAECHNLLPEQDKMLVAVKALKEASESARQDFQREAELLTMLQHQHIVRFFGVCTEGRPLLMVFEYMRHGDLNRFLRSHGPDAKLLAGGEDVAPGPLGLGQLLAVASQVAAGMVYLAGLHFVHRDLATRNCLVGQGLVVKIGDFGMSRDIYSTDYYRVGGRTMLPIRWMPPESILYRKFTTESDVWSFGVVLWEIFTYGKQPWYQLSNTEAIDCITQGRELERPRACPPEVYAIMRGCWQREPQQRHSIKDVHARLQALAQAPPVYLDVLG
Protocol: (Pharmacology Experiment 1): Evaluation on Binding Activity Against Human TrkA Protein
Measurements were made using TrkA LanthaScreen™ Eu Kinase Binding Assay (ThermoFisher SCIENTIFIC). Into 384 well plates (Corning), a 2.5 μL solution having each concentration of the test compound (1) diluted in Kinase buffer (ThermoFisher SCIENTIC) and a 2.5 μL having 15 nM TrkA enzyme (ThermoFisher SCIENTIFIC) were added. In addition, a 5 μL having 3 nM Eu-anti-His Tag […] (ThermoFisher SCIENTIFIC) and 5 μL having 30 nM Kinase™ Tracer 236 (ThermoFisher SCIENTIFIC) were added, and allowed to react at room temperature for 60 minutes. After the reaction, the fluorescence ratio was calculated as the binding amount of the test compound (1) with TrkA enzyme, by measuring the fluorescence intensity (Emission wavelength 615 nm) and TR-FRET (Emission wavelength 665 nm) of Europium by the excitation wavelength of 340 nm using EnVision 2100 (PerkinElmer). […]
The inhibitory activity of each crystal of the test compound (1), which is 1-((1R,2R)-2-hydroxy-4,4-dimethyl-1,2,3,4-tetrahydronaphthalen-1-yl)-3-(5-methyl-6-(2-methylpyrimidin-5-yl)-2-phenylpyridin-3-yl)urea can be assessed by IC50 value.

[2] = Determination of equilibrium solubility in phosphate buffer solution with pH 6.8; format: physicochemical; settings: pH 6.8 phosphate buffer, 37° C., mean value of three measurements
Excerpt: (Test Example 1) Determination of Equilibrium Solubility (Determination of Solubility in Phosphate Buffer Solution with pH 6.8)
Each of the equilibrium solubilities (solubility in phosphate buffer solution with pH 6.8) of Type I (Example 2), III (Example 3), V (Example 4) and VI crystals (Example 5) of 1-((1R,2R)-2-hydroxy-4,4-dimethyl-1,2,3,4-tetrahydronaphthalen-1-yl)-3-(5-methyl-6-(2-methylpyrimidin-5-yl)-2-phenylpyridin-3-yl)urea obtained in the above (Example 2) to (Example 5) was determined as follows:
Water was added a weighed potassium dihydrogen phosphate of 2.7 g to make 100 mL volume to prepare 0.2 mol/L potassium dihydrogen phosphate solution. Water was added a weighed disodium hydrogen phosphate […] of 7.2 g to make 100 mL volume to prepare 0.2 mol/L disodium hydrogen phosphate solution. A pH 6.8 phosphate buffer solution was prepared by diluting a mixture of 0.2 mol/L potassium dihydrogen phosphate solution (14.8 mL) and 0.2 mol/L disodium hydrogen phosphate solution (10.0 mL) with water (173.6 mL).
Approximately 1 mg of the each crystal from (Example 2) to (Example 5) was weighed into a screw tube, and a pH 6.8 phosphate buffer solution (1 mL) was added. An isothermal shaker (M-BR-022UP) was used to incubate the sample at 37° C. and 1000 rpm for 24 hours. 100 μL solution were sampled at 1, 2, 6, and 24 hours after the start of incubation, and were filtered using a centrifuge (HITACHI, Himac cF 9RX, at 25° C., at 1500 rpm, for 30 seconds) with a filter (Millipore: Multiscreen, MSSLBPC10) so as to remove insoluble materials. A 20 μL of the filtrate was quantified, and diluted with a solution (180 μL, pH 9.0) of 20 vol % tetrahydrofuran and 80 vol % ammonium bicarbonate aqueous solution (10 mM). A 10 μL of the prepared solution was quantified, and diluted with a solution (190 μL, pH 9.0) of 20 vol % tetrahydrofuran and 80 vol % ammonium bicarbonate aqueous solution (10 mM). The prepared solution was analyzed by ultra performance liquid chromatography (UPLC) under the following measurement conditions, and the concentration of the compound in the solution was calculated based on a previously prepared calibration curve. Three times of measurements were made for each example compound, and the mean values and standard deviations of the three measurements are shown as a result in Table 6.
<UPLC measurement conditions> Equipment: ACQUITY UPLC H-Class (Waters) Detector: PDA (200-500 nm) Column: BEH C18 2.1×50 mm Measurement wavelength: 270 nm Column temperature: 40° C. Injection amount: 10 μL Mobile phase: • Solvent A, acetonitrile; • Solvent B, 10 mM ammonium bicarbonate aqueous solution (pH 9.0) Gradient conditions: […]

Storage stability test = format: physicochemical
Protocol: For the stability test, approximately 20 mg of the test sample was stored at 25° C./60% RH or at 40° C./75% RH in open or closed condition for 1 month using a small environmental tester SH-641 (manufactured by Espec), and changes in purity and in crystalline form were observed.
For purity measurement, equipment of Waters ACQUITY UPLC H-Class (manufactured by Waters) and column of Waters ACQUITY BEH C18 (particle diameter […], size 2.1×50 mm) are used. For the mobile phase, 10 mmol/L ammonium bicarbonate buffer pH 9.0 and acetonitrile were used; and the test sample solution at 100 μg/mL in the mixture solvent of THF (tetrahydrofuran):10 mmol/L ammonium bicarbonate buffer (20:80) was prepared.
(Test Example 2) Storage Stability Test
The type I (Example 2), III (Example 3), V (Example 4) and VI (Example 5) crystals (each about 20 mg) of 1-((1R,2R)-2-hydroxy-4,4-dimethyl-1,2,3,4-tetrahydronaphthalen-1-yl)-3-(5-methyl-6-(2-methylpyrimidin-5-yl)-2-phenylpyridin-3-yl)urea obtained in the above Examples 2 to 5 were stored in glass bottles under the respective conditions described in Table 7. After completion of the storage period, the retrieved sample was confirmed on the purity by high performance liquid chromatography and on the crystal form by powder X-ray diffraction analysis as in the Examples.

[3] = Pharmacokinetic study, single oral dose in rats; format: in vivo; settings: male Crl:CD (SD) rats, oral single dose 600 mg/kg in 0.5 w/v % methylcellulose 400
Protocol: (Pharmacology Experiment 5): Pharmacokinetic Study
Plasma sample obtained by centrifugation of blood (12000×g, for 5 minutes, at 4° C.) was measured to determine plasma concentration of the test compound using high performance liquid chromatography/mass spectrometry. Similarly, concentrations of standard solutions containing the test compound at known concentrations (0.001, 0.002, 0.005, 0.01, 0.02, 0.05, 0.1, 0.2, 0.5, 1, 2, and 5 μg/mL) were measured. And then, the plasma concentration (μg/mL) of the compound (1) was calculated from the prepared calibration curve to obtain the maximum plasma concentration (Cmax (μg/mL)) and the area under the plasma concentration-time curve (AUC (μg·hr/mL)). Measurement conditions can be appropriately adjusted by a person skilled in the art.

[4] = Shielded from light by aluminum foil, 0.5 ICH
[5] = Shielded from light by aluminum foil, 1 ICH
[6] = Shielded from light by aluminum foil, Before the test
[7] = 25° C./60% RH, closed for 1 month
[8] = 25° C./60% RH, open for 1 month
[9] = 40° C./75% RH, closed for 1 month
[10] = 40° C./75% RH, open for 1 month

Row | Structure (SMILES) | Chemical purity (%) ([1]; Exposure, 0.5 ICH (5-day)) | Crystalline form after completion of storage period ([1]; Exposure, 0.5 ICH (5-day)) | Chemical purity (%) ([1]; Exposure, 1 ICH (10-day)) | Crystalline form after completion of storage period ([1]; Exposure, 1 ICH (10-day)) | Chemical purity (%) ([1]; Exposure, Before the test) | Crystalline form after completion of storage period ([1]; Exposure, Before the test) | Chemical purity (%) [1, 4] [%] | Crystalline form after completion of storage period [1, 4] | Chemical purity (%) [1, 5] [%] | Crystalline form after completion of storage period [1, 5] | Chemical purity (%) [1, 6] [%] | Crystalline form after completion of storage period [1, 6] | Solubility [2] [µg/mL] | Chemical purity (%) (Storage stability test; [7]) | Crystalline form after completion of storage period (Storage stability test; [7]) | Chemical purity (%) (Storage stability test; [8]) | Crystalline form after completion of storage period (Storage stability test; [8]) | Chemical purity (%) (Storage stability test; [9]) | Crystalline form after completion of storage period (Storage stability test; [9]) | Chemical purity (%) (Storage stability test; [10]) | other results
1 | Cc1ncc(-c2nc(-c3ccccc3)c(NC(=O)N[C@@H]3c4ccccc4C(C)(C)C[C@H]3O)cc2C)cn1 [Example 3, 1-((1R,2R)-2-hydroxy-4,4-dimethyl-1,2,3,4-tetrahydronaphthalen-1-yl)-3-(5-methyl-6-(2-methylpyrimidin-5-yl)-2-phenylpyridin-3-yl)urea] | 100.0 | Type III crystal | 100.0 | Type III crystal | 100.0 | Type III crystal | 100.0 | Type III crystal | 100.0 | Type III crystal | 100.0 | Type III crystal | 66.0 (≈ 134 µM) | 100.00 | Type III crystal | 100.00 | Type III crystal | 100.00 | Type III crystal | 100.00 | Stability against light ([1]; listed as type III crystal): stable against light; IC50 (human TrkA protein): ≤ 0.05 µM; Crystalline form after completion of storage period (Storage stability test; [10]): Type III crystal; Chemical purity (%) (Storage stability test; Before the test): 100.00%; Crystalline form after completion of storage period (Storage stability test; Before the test): Type III crystal
2 | Cc1ncc(-c2nc(-c3ccccc3)c(NC(=O)N[C@@H]3c4ccccc4C(C)(C)C[C@H]3O)cc2C)cn1 [Example 4, 1-((1R,2R)-2-hydroxy-4,4-dimethyl-1,2,3,4-tetrahydronaphthalen-1-yl)-3-(5-methyl-6-(2-methylpyrimidin-5-yl)-2-phenylpyridin-3-yl)urea] | 99.8 | Type V crystal | 99.8 | Type V crystal | 99.9 | Type V crystal | 99.9 | Type V crystal | 99.9 | Type V crystal | 99.9 | Type V crystal | 60.1 (≈ 122 µM) | 99.8 | Type V crystal | 99.8 | Type V crystal | 99.8 | Type V crystal | 99.8 | Area Under Plasma Concentration (AUC) [3]: 473 µg·h/mL; Maximum Plasma Concentration (Cmax) [3]: 26900 ng/mL; Stability against light ([1]; listed as type V crystal): stable against light; Crystalline form after completion of storage period (Storage stability test; [10]): Type V crystal; Chemical purity (%) (Storage stability test; Before the test): 99.8%; Crystalline form after completion of storage period (Storage stability test; Before the test): Type V crystal; Moisture absorption (Storage stability test; during the storage period): no moisture absorption was observed; Chemical and physical stability over the test period (Storage stability test; storage for 1 month, result in words): chemically and physically stable
